Laboratory results taken from article PMC10539329, “NLRP6 potentiates PI3K/AKT signalling by promoting autophagic degradation of p85α to drive tumorigenesis” (Nature Communications, 2023).

What was measured:
[1] = test system: NLRP6/p85α interaction; experiment: Competitive ELISA, NLRP6 binding to p85α; format: biochemical; details: 10 μM peptide (PepC +, Pep9 ++), 1 h
Procedure: DNA encoding full-length NLRP6 was codon optimized and chemically synthesized by Genewiz (Soochow, China). The DNA sequence was subcloned into NdeI-XhoI sites of a pDB-His-MBP vector (kindly given by Pro. Chenggui Han, China Agricultural University, Beijing, China). Recombinant NLRP6 protein was expressed and purified following previous reports, with slight modifications. Briefly, the protein was expressed in E. coli (DE3) at 16 °C with 0.5 mM IPTG induction overnight. Then, the protein was purified by Ni affinity and gel filtration chromatography. The p85α WT and p85α mutant sequences were chemically synthesized and subcloned into BamHI-XhoI sites of a pGEX-6P-1 plasmid by GenScript (Nanjing, China). The E. coli (DE3) transformed with the plasmids were grown in LB medium at 37 °C. The culture medium was supplemented with 0.5 mM IPTG followed by incubation at 16 °C for 16–18 h. The proteins were purified by glutathione-affinity chromatography (Smart-Life Sciences, Changzhou, China) followed by gel filtration chromatography (Cytiva, MA, USA) using PBS. The protein extinction coefficient was calculated by ProtParam, and the protein concentration was determined by the ultraviolet spectrophotometry method.
The 96-well plate was coated with bovine serum albumin (BSA) or purified NLRP6. HRP-conjugated PepC or HRP-conjugated Pep9 was incubated with BSA or NLRP6 for 1 h, and the unbound peptide was washed away. The HRP substrate was added, and the absorbance was detected at 450 nm. For the competitive ELISA, the 96-well plate was coated with purified p85α. The binding of NLRP6 to p85α competed with 10 μM PepC or 5 μM, 10 μM, 20 μM Pep9 for 1 h.

[2] = test system: LN18 cells; experiment: Cell proliferation / viability assay, LN18; format: cell-based, Human; details: Supplementary Figure 8c
Procedure: (§1) Cells were seeded into 12-well plates at a density of 1 × 10^4 cells per well. Manual cell counting was carried out at the indicated times using trypan blue and a haemocytometer.
(§2) To determine the antitumour effect of the peptide in vitro, the peptide was incubated with cells for 24 h when the cells were grown to approximately 80% confluence. Cell viability was measured at the indicated time points. The cell lysates were collected for immunoprecipitation as described above. To determine the antitumour effect of the peptide in vivo, the peptide was stereotactically injected using identical coordinates of tumour implantation in 3 μl of PBS. Briefly, 3 weeks after intracranial tumour cell implantation, mice with similar tumour sizes and similar weights were selected and randomly arranged into five groups (n = 6): PBS, PepC (0.25 mg/kg TAT-PepC per injection), Pep9 low dose (Pep9 L, 0.05 mg/kg TAT-Pep9 per injection), Pep9 medium dose (Pep9 M, 0.1 mg/kg TAT-Pep9 per injection), and Pep9 high dose (Pep9 H, 0.25 mg/kg TAT-Pep9 per injection). Each mouse received intratumoural injection every 10 days (at Day 21, Day 31, Day 41, and Day 51), and tumour growth was monitored at Day 21, Day 41, and Day 56. The experiment was terminated at Day 80, and all the mice (if they were alive) were sacrificed as previously described.

[3] = test system: HS683 cells; experiment: Cell proliferation / viability assay, HS683; format: cell-based, Human; details: Supplementary Figure 8f
Procedure: as §1, §2

[4] = test system: nude mice with intracranially implanted tumour cells; experiment: Survival of nude mice with intracranial tumour after intratumoural peptide; format: in vivo, BALB/c nude mice; details: 0.25 mg/kg per injection (PepC, Pep9 H)
Procedure: BALB/c nude mice were maintained and bred in a specific-pathogen free (SPF) environment, adhering to standard conditions of temperature (20–26 °C) and humidity (40–70%). They were subjected to a strict 12-h light cycle, with lights on at 08:00 a.m. and off at 08:00 p.m. No limitations were imposed on the sex of the experimental animals involved in this study. Cells expressing firefly luciferase mixed with Matrigel (Corning, NY, USA) were intracranially injected into 5- to 6-week-old female athymic nude mice. The intracranial injection point was at the cerebral cortex, 1 mm prior to coronal suture, 1 mm on the right side of the centreline, and 3 mm below the dura mater. Appropriate medications were provided to reduce pain. To monitor intracranial tumour growth, the animals were intraperitoneally injected with D-luciferin (Yeasen, #40902ES01) and anaesthetized with isoflurane. The images were captured using an In Vivo MS FX pro Imaging System (Bruker, MA, USA) or IVIS Lumina imaging station (Perkin Elmer, MA, USA). The results were reported as the total flux (photons/second). The mice were sacrificed at the indicated time points. The brains were removed, fixed in 4% paraformaldehyde, and embedded in paraffin.
as §2

[5] = test system: p85α; experiment: IHC of p85α in tumour tissues from peptide-treated mice; format: in vivo, nude mice with human tumour cells; details: PepC
Procedure: In brief, the tissue sections were deparaffinized in xylene and 50–100% ethanol sequentially and then rehydrated in deionized water. The sections were immersed in Antigen Retrieval Solution in a pressure cooker and kept at 120 °C for 2.5 min. Endogenous peroxidase activity was blocked with peroxidase blocking reagent (3% hydrogen peroxide in water) for 15 min. The sections were incubated with primary antibodies in incubation buffer at 4 °C overnight. The sections were rinsed with wash buffer and incubated with secondary antibodies at room temperature for 1 h. Finally, the sections were immersed in DAB Chromogen Solution for suitable staining and counterstained with Haematoxylin QS for 3 min. The protein score was calculated by multiplying the percentage of positive cells (<10% = 0, 10–25% = 1, 25–50% = 2, 50–75% = 3, >75% = 4) by the intensity (negative = 0, weak staining = 1, moderate staining = 2, or strong staining = 3). The stained sections were evaluated by two independent pathologists who were blinded to the clinical characteristics.
as §2

## SAEGYQYRALYD [Pep1, peptide found on the p85α SH3 domain; selected as the control named PepC]
[1]; replicate 1, no peptide 2.20
  ELISA value (NLRP6 binding to p85α): 1.90
[1]; replicate 2, no peptide 2.10
  ELISA value (NLRP6 binding to p85α): 2.05
[1]; replicate 3, no peptide 2.45
  ELISA value (NLRP6 binding to p85α): 1.80
[2]; 5 μM, replicate 1
  Relative cell viability: 0.95
[2]; 5 μM, replicate 2
  Relative cell viability: 0.92
[2]; 5 μM, replicate 3
  Relative cell viability: 0.93
[2]; 10 μM, replicate 1
  Relative cell viability: 0.92
[2]; 10 μM, replicate 2
  Relative cell viability: 0.95
[2]; 10 μM, replicate 3
  Relative cell viability: 0.90
[2]; 20 μM, replicate 1
  Relative cell viability: 0.95
[2]; 20 μM, replicate 2
  Relative cell viability: 0.92
[2]; 20 μM, replicate 3
  Relative cell viability: 0.90
[2]; 30 μM, replicate 1
  Relative cell viability: 0.92
[2]; 30 μM, replicate 2
  Relative cell viability: 0.88
[2]; 30 μM, replicate 3
  Relative cell viability: 0.94
[3]; 5 μM, replicate 1
  Relative cell viability: 0.98
[3]; 5 μM, replicate 2
  Relative cell viability: 0.96
[3]; 5 μM, replicate 3
  Relative cell viability: 0.94
[3]; 10 μM, replicate 1
  Relative cell viability: 0.96
[3]; 10 μM, replicate 2
  Relative cell viability: 0.95
[3]; 10 μM, replicate 3
  Relative cell viability: 0.91
[3]; 20 μM, replicate 1
  Relative cell viability: 0.94
[3]; 20 μM, replicate 2
  Relative cell viability: 0.90
[3]; 20 μM, replicate 3
  Relative cell viability: 0.89
[3]; 30 μM, replicate 1
  Relative cell viability: 0.92
[3]; 30 μM, replicate 2
  Relative cell viability: 0.88
[3]; 30 μM, replicate 3
  Relative cell viability: 0.85
[4]; terminated Day 80, mouse 1
  nude mice survival: 60 days
[4]; terminated Day 80, mouse 2
  nude mice survival: 61 days
[4]; terminated Day 80, mouse 3, >= is status 0 (live)
  nude mice survival: 59 days
[4]; terminated Day 80, mouse 4, >= is status 0 (live)
  nude mice survival: 58 days
[4]; terminated Day 80, mouse 5, >= is status 0 (live)
  nude mice survival: 58 days
[4]; terminated Day 80, mouse 6, >= is status 0 (live)
  nude mice survival: 62 days
[5]; replicate 1
  score (Supplementary Figure 8k): 2
[5]; replicate 2
  score (Supplementary Figure 8k): 1
[5]; replicate 3
  score (Supplementary Figure 8k): 1
[5]; replicate 4
  score (Supplementary Figure 8k): 3
[5]; replicate 5
  score (Supplementary Figure 8k): 1
